# Assay results: patent US20220378936A1, “DELIVERY SYSTEM COMPLEXES COMPRISING A PRECIPITATE OF AN ACTIVE AGENT AND METHODS OF USE” (THE UNIVERSITY OF NORTH CAROLINA AT CHAPEL HILL, priority 2019, published 2022)
# Tests used:
# [1] = Particle size, zeta potential and morphology of Nano-Folox (Malvern Nano-ZS, TEM); details: FIG. 2A
# Protocol: The measurements of particle size and zeta potential of Nano-Folox were performed using the Malvern Nano-ZS (Malvern Instruments, UK)^59. The morphology of nanoprecipitates and Nano-Folox was analyzed using transmission electron microscopy (TEM). Briefly, 5 μL Nano-Folox were added on 400-mesh carbon-filmed copper grids (Agar Scientific) for 2 min. The samples were stained with 2% (w/w) uranyl acetate before the analysis using the JEM1230 (JEOL) TEM. Alternatively, the morphology of the core was analyzed without the negative staining.
# [2] = Aqueous solubility of stabilized nanoprecipitates; assay type: physicochemical; details: DOPA-stabilized nanoprecipitates
# [3] = test system: CT26 cells; test: MTT cytotoxicity assay, CT26; assay type: cell-based; details: Mus musculus; CT26, 24 h incubation
# Protocol: (§1) MTT assay was applied to determine in vitro cytotoxicity. CT26 and Hepa1-6 cells (1×10^4/well) were cultured within 96-well plates, respectively. Following one day incubation, 5-Fu, Nano-dUMP and Nano-FdUMP were added to cells for 24 h. […] IC50 was calculated using the GraphPad Prism software.
# [4] = test system: Hepa1-6 cells; test: MTT cytotoxicity assay, Hepa1-6; assay type: cell-based; details: Mus musculus; Hepa1-6, 24 h incubation
# Protocol: as §1
# [5] = test system: CT26-FL3 cells; test: MTT cytotoxicity assay; assay type: cell-based, mouse
# Protocol: Cytotoxicity of Nano-Folox was estimated using the MTT assay with 3-(4,5-Dimethylthiazol-2-yl)-2,5-diphenyltetrazolium bromide^60. 10,000 CT26-FL3 cells per well were seeded in 96-well plates and incubated for one day. After incubation, cells were added with OxP and Nano-Folox for 24 h under normal growth conditions. Subsequently, cells were added with 20 μL MTT reagent (5 mg/mL in PBS) and incubated for 4 h at 37° C. 150 μL DMSO were used to dissolve the purple formazan products. The results were measured at 570 nm using a microplate reader. The 50% cell growth inhibition (IC50) was estimated using the GraphPad Prism software.
# [6] = Pharmacokinetics of platinum in orthotopic CRC mice; assay type: in vivo, mouse; details: single i.v. injection, one-compartmental model
# Description: (§2) The orthotopic CT26-FL3 colorectal tumor model was established as previously described^31.
# [7] = Tissue distribution of Nano-Folox in orthotopic CRC mice (IVIS, ICP-MS); assay type: in vivo, mouse; details: 8 h after i.v. administration, 1.5 mg/kg platinum
# Protocol: as §2
# In addition, — 0.05% (wt) of lipophilic carbocyanine DiD (ThermoFisher) was used to formulate the DiD-labeled Nano-Folox (1.5 mg/kg platinum). Following 8 h i.v. injection of DiD-labeled Nano-Folox, major organs and tumors were collected and analyzed using the IVIS® Kinetics Optical System, with the excitation wavelength at 640 nm and the emission wavelength at 670 nm. The concentration of platinum in major organs and tumors was also measured using ICP-MS^8.
# [8] = test system: cells; details: free FdUMP; cited from earlier work
structure (smiles),measurement,setting,value
"Nc1nc(=O)c2c([nH]1)NCC(CNc1ccc(C(=O)NC3CCC(=O)[O][Pt]4([NH]C5CCCCC5[NH]4)[O]C3=O)cc1)N2C=O (stereo not shown) [Pt(DACH).FnA precipitate, dihydrate(1,2-diaminocyclohexane)platinum(II)-folinic acid]",particle size of the DOPA-stabilized precipitate,[1],~100 nm
same,solubility in water,[2],poorly soluble in water
"O=c1[nH]cc(F)c(=O)[nH]1 [5-Fu, 5-fluorouracil]",IC50,[3],~70 µM
same,IC50,[4],~70 µM
"O=C1[O][Pt]2([NH][C@@H]3CCCC[C@H]3[NH]2)[O]C1=O [OxP, oxaliplatin]",IC50,"[5]; 24 h incubation, read-out: IC50 (50% cell growth inhibition)",24 µM
same,half-life (t1/2) of platinum,[6],~8 min
same,liver uptake of platinum,[7],~35 % ID/g
same,tumor accumulation of platinum,[7],~15 % ID/g
"Nc1nc2c(c(=O)[nH]1)N(C=O)C(CNc1ccc(C(=O)N[C@@H](CCC(=O)O)C(=O)O)cc1)CN2 (stereo partly shown) [FnA, folinic acid]",proliferation of CT26-FL3 cells,"[5]; FnA alone, data not shown",not inhibited
"O=c1[nH]c(=O)n([C@H]2C[C@H](O)[C@@H](COP(=O)(O)O)O2)cc1F [FdUMP, 5-Fluoro-2′-deoxyuridine 5′-monophosphate]",permeability into cells,[8],impermeable into cells
